The target of one assay is T1, 26S proteasome (Oryctolagus cuniculus, UniProt G1T4Q9).
T1 sequence (G1T4Q9 1-263): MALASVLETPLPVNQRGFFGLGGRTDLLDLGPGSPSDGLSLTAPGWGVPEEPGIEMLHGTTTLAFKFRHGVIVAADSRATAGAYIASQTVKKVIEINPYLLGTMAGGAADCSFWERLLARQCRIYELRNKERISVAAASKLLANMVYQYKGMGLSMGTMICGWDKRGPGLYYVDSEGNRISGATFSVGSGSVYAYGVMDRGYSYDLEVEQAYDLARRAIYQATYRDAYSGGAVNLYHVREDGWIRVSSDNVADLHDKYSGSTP
As to the kind of experiment: Inhibition of the 26S proteasome (kinetic experiments, Ki). The class given is biochemical. The note with it: Rabbit muscle; substrate Suc-LLVY-AMC; [Mg:ATP] = 2 mM. The source says: (§1) Tables I-III summarize results from kinetic experiments that measured the inhibition of the 20S and 26S proteasomes, as well as cathepsin B and calpain. In these tables, Ki values are reported, which are dissociation constants for the equilibrium that is established when enzyme and inhibitor interact to form the enzyme:inhibitor complex.
(§2) The substances and assay conditions are briefly summarized in the footnotes to Table I. MG 101 and MG 102, also known as Calpain Inhibitor I and II, were purchased from Calbiochem as catalogue products.

The target of a further assay is T2, cathepsin B (Bos taurus, UniProt P07688).
T2 construct: Bovine spleen; Substrate: Z-RR-AMC; from tissue; host or cells: bovine spleen
Put plainly: Inhibition of cathepsin B (Ki). The class given is biochemical. The note with it: Bovine spleen; substrate Z-RR-AMC; [DTT] = 2 mM, [EDTA] = 5 mM, pH 5.5, 37° C.; read-out: Ki Cat B.
Text: as §1

The target in assay [1] is calpain, 80 kD catalytic subunit. As to the kind of experiment: Inhibition of calpain (Ki). It is filed as biochemical. The settings on record: Rabbit muscle, substrate Suc-LLVY-AMC, [CaCl2] = 1 mM, [DTT] = 2 mM, pH 7.8, 20° C.
Text: as §1

Assay [2] addresses T3, 20S Proteasome (Oryctolagus cuniculus, UniProt G1T4Q9).
T3 sequence (G1T4Q9 1-263): T1 sequence (G1T4Q9 1-263)
As to the kind of experiment: Inhibition of the 20S proteasome (kinetic experiments, Ki). Set-up: Ki 20 S; substrate Suc-LLVY-AMC. The class given is biochemical, Rabbit. The settings on record: Rabbit muscle, SDS-activated; substrate Suc-LLVY-AMC.
Text: as §1, §2
(§3) Table V summarizes data for the inhibition of the 20S proteasome by various tripeptide aldehyde inhibitors.

Assay [3] has as its target T4, 20S proteasome (Oryctolagus cuniculus, UniProt G1T4Q9).
T4 sequence (G1T4Q9 60-263): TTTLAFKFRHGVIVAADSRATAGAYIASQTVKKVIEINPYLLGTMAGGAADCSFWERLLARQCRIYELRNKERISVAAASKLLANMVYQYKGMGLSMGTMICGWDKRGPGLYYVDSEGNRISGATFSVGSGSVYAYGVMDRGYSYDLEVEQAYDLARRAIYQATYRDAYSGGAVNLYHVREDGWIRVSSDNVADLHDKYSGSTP
Described as above. It is filed as biochemical, Rabbit. The settings on record: Table V, miscellaneous tripeptide aldehydes; 20S proteasome.
Text: as §1, §2, §3

Each structure is given as a SMILES string. Non-standard residues stand in square brackets, D forms with d. Residues, ends and D or L forms follow the SMILES beside them. ξ: configuration not given here. *: point of attachment. Phe(4-NO2) = N[C@@H](Cc1ccc([N+](=O)[O-])cc1)C(=O)O; Tyr(3,5-Br2) = N[C@@H](Cc1cc(Br)c(O)c(Br)c1)C(=O)O; Tyr(3,5-I2) = N[C@@H](Cc1cc(I)c(O)c(I)c1)C(=O)O; Phe(4-Cl) = N[C@@H](Cc1ccc(Cl)cc1)C(=O)O; 1Nal = N[C@@H](Cc1cccc2ccccc12)C(=O)O; 2Nal = N[C@@H](Cc1ccc2ccccc2c1)C(=O)O; hPhe = N[C@@H](CCc1ccccc1)C(=O)O; tBuAla = CC(C)(C)C[C@H](N)C(=O)O; Cha = N[C@@H](CC1CCCCC1)C(=O)O; Ile(3ξ) = CCC(C)[C@H](N)C(=O)O; AllylGly = C=CC[C@H](N)C(=O)O; Phg = N[C@H](C(=O)O)c1ccccc1; Nle = CCCC[C@H](N)C(=O)O; Pra = C#CC[C@H](N)C(=O)O; Nva = CCC[C@H](N)C(=O)O; Abu = CC[C@H](N)C(=O)O; Cbz = O=C(OCc1ccccc1)*; Boc = CC(C)(C)OC(=O)*; Bn = c1ccc(C*)cc1 Where only a bound is given, the exact number is not on record here.

As a reminder, the Ki is a dissociation constant, usually derived from enzyme kinetics or from competition with a known ligand.

In the case of `CSCC[C@@H](C=O)NC(=O)[C@H](CC(C)C)NC(=O)[C@H](CC(C)C)NC(C)=O` [MG 102, reference compound] (Ac-Leu-Leu-Met-aldehyde), the Ki is 28000 nM on 26S proteasome, 94 nM at cathepsin B, 120 nM in assay [1] and 1000 nM at 20S Proteasome [2]. With `CCCC[C@@H](C=O)NC(=O)[C@H](CC(C)C)NC(=O)OCc1ccccc1` [MG 105, Z-Leu-Nle-H, reference compound], at 20S Proteasome [2], the inhibition constant Ki is 15000 nM.

Consider `CC(C)C[C@H](NC(=O)OCc1ccccc1)C(=O)N[C@@H](CC(C)C)C(=O)N[C@@H](C)C=O` [MG 111] (Cbz-Leu-Leu-Ala-aldehyde), for which the Ki on 26S proteasome stood at 690 nM; at cathepsin B, 6 nM; in assay [1] it was 11 nM; on 20S Proteasome [2], 210 nM. On the same counts, the results for `COC(=O)C(=O)[C@H](Cc1ccccc1)NC(=O)[C@H](CC(C)C)NC(=O)[C@H](CC(C)C)NC(=O)OCc1ccccc1` [MG 113, Z-Leu-Leu-Phe-C(O)—OMe] are 1300 nM, less than 4 nM, 45 nM and 690 nM.

For `CCCC[C@@H](C=O)NC(=O)[C@H](CC(C)C)NC(=O)[C@H](CC(C)C)NC(=O)OCc1ccccc1` [MG 114, Z-Leu-Leu-Nle-H] (Cbz-Leu-Leu-[Nle]-aldehyde), the inhibition constant (Ki) on 26S proteasome was found to be 120 nM; on cathepsin B, 7 nM; in assay [1], 12 nM; on 20S Proteasome [2] it was 47 nM. On the same counts, the results for `CCC[C@@H](C=O)NC(=O)[C@H](CC(C)C)NC(=O)[C@H](CC(C)C)NC(=O)OCc1ccccc1` [MG 115, Z-Leu-Leu-Nva-H] (Cbz-Leu-Leu-[Nva]-aldehyde) are 78 nM, 10 nM, 10 nM and 21 nM. On the same counts, the results for `CC(C)C[C@H](NC(=O)OCc1ccccc1)C(=O)N[C@@H](CC(C)C)C(=O)NCC=O` [MG 118] (Cbz-Leu-Leu-Gly-aldehyde) are 28000 nM, 94 nM, 120 nM and 3800 nM. On the same counts, the results for `CC[C@@H](C=O)NC(=O)[C@H](CC(C)C)NC(=O)[C@H](CC(C)C)NC(=O)OCc1ccccc1` [MG 119] (Cbz-Leu-Leu-[Abu]-aldehyde) are 280 nM, 18 nM, 15 nM and 50 nM. In the case of `CC(C)C[C@H](NC(=O)OCc1ccccc1)C(=O)N[C@@H](CC(C)C)C(=O)N[C@H](C=O)C(C)C` [MG 120] (Cbz-Leu-Leu-Val-aldehyde), the inhibitory constant (Ki) was determined as 560 nM at 26S proteasome, 36 nM at cathepsin B, 14 nM in assay [1] and 94 nM on 20S Proteasome [2]. On the same counts, the results for `CC(C)C[C@H](NC(=O)OCc1ccccc1)C(=O)N[C@@H](CC(C)C)C(=O)N[C@H](C=O)Cc1ccc2ccccc2c1` [MG 121, Z-Leu-Leu-Nal-H] (Cbz-Leu-Leu-[2Nal]-aldehyde) are 70 nM, 73 nM, 62 nM and 25 nM.

As for `CC(C)C[C@H](NC(=O)OCc1ccccc1)C(=O)N[C@@H](CC(C)C)C(=O)N[C@H](C=O)CCc1ccccc1` [MG 124] (Cbz-Leu-Leu-[hPhe]-aldehyde), the affinity on 20S proteasome [3], expressed as Ki, was 59 nM. The same measure, in the same setting: under `CC(C)C[C@H](NC(=O)OCc1ccccc1)C(=O)N[C@@H](CC(C)C)C(=O)N[C@H](C=O)CC1CCCCC1` [MG 129] (Cbz-Leu-Leu-[Cha]-aldehyde) stands 60 nM. In turn, `CC(C)C[C@H](NC(=O)OCc1ccccc1)C(=O)N[C@@H](CC(C)C)C(=O)N[C@H](C=O)Cc1ccc(O)cc1` [MG 131] (Cbz-Leu-Leu-Tyr-aldehyde) showed an inhibitory constant (Ki) at 20S proteasome [3] of 6 nM. The same measure, in the same setting: under `CC(C)C[C@@H](C=O)NC(=O)[C@H](CC(C)C)NC(=O)[C@H](CC(C)C)NC(=O)OCc1ccccc1` [MG 132] (Cbz-Leu-Leu-Leu-aldehyde) stands 9 nM. On to `CC(C)C[C@H](NC(=O)OCc1ccccc1)C(=O)N[C@@H](CC(C)C)C(=O)N[C@H](C=O)c1ccccc1` [MG 133] (Cbz-Leu-Leu-[Phg]-aldehyde), for which the affinity on 20S proteasome [3] corresponds to a Ki of 470 nM.

On 20S proteasome [3], `CCC(C)[C@@H](C=O)NC(=O)[C@H](CC(C)C)NC(=O)[C@H](CC(C)C)NC(=O)OCc1ccccc1` (stereo partly drawn) [MG 134] (Cbz-Leu-Leu-[Ile(3ξ)]-aldehyde) had an inhibition constant Ki of 100 nM. Same read-out and setting: to `CC(C)C[C@H](NC(=O)OCc1ccccc1)C(=O)N[C@@H](CC(C)C)C(=O)N[C@H](C=O)Cc1ccc([N+](=O)[O-])cc1` [MG 135] (Cbz-Leu-Leu-[Phe(4-NO2)]-aldehyde) belongs 290 nM; to `CC(C)C[C@H](NC(=O)OCc1ccccc1)C(=O)N[C@@H](CC(C)C)C(=O)N[C@H](C=O)CC(C)(C)C` [MG 136] (Cbz-Leu-Leu-[tBuAla]-aldehyde), 1000 nM; to `C=CC[C@@H](C=O)NC(=O)[C@H](CC(C)C)NC(=O)[C@H](CC(C)C)NC(=O)OCc1ccccc1` [MG 139] (Cbz-Leu-Leu-[AllylGly]-aldehyde), 20 nM. Same read-out and setting: to `C#CC[C@@H](C=O)NC(=O)[C@H](CC(C)C)NC(=O)[C@H](CC(C)C)NC(=O)OCc1ccccc1` [MG 140] (Cbz-Leu-Leu-[Pra]-aldehyde) belongs 28 nM; to `CCC[C@@H](C=O)NC(=O)[C@H](CC(C)C)NC(=O)[C@H](CC1CCCCC1)NC(=O)OCc1ccccc1` [MG 141] (Cbz-[Cha]-Leu-[Nva]-aldehyde), 50 nM. Still for that read-out and setting: under `CCC[C@@H](C=O)NC(=O)[C@H](CC(C)C)NC(=O)[C@H](Cc1cccc2ccccc12)NC(=O)OCc1ccccc1` [MG 142] (Cbz-[1Nal]-Leu-[Nva]-aldehyde) stands 0.3 nM. Molecule `CC(C)C[C@@H](C=O)NC(=O)[C@H](CC(C)C)NC(=O)[C@H](Cc1cccc2ccccc12)NC(=O)OCc1ccccc1` [MG 150] (Cbz-[1Nal]-Leu-Leu-aldehyde) had a Ki at 20S proteasome [3] of 0.4 nM. As for `CC(C)C[C@H](NC(=O)OCc1ccccc1)C(=O)N[C@@H](CC(C)C)C(=O)N[C@H](C=O)Cc1c[nH]c2ccccc12` [MG 151] (Cbz-Leu-Leu-Trp-aldehyde), the Ki at 20S proteasome [3] worked out at 10 nM. Same read-out and setting: under `COc1ccc(C[C@@H](C=O)NC(=O)[C@H](CC(C)C)NC(=O)[C@H](CC(C)C)NC(=O)OCc2ccccc2)cc1` [MG 152] (Cbz-Leu-Leu-Tyr(Me)-aldehyde) stands 6 nM. Still for that read-out and setting: to `CC(C)C[C@H](NC(=O)OCc1ccccc1)C(=O)N[C@@H](CC(C)C)C(=O)N[C@H](C=O)Cc1ccc(OCc2ccccc2)cc1` [MG 153] (Cbz-Leu-Leu-Tyr(Bn)-aldehyde) belongs 280 nM. On the same count and under the same terms, to `CC(=O)N[C@@H](CC(C)C)C(=O)N[C@@H](CC(C)C)C(=O)N[C@H](C=O)CC(C)C` [MG 154] (Ac-Leu-Leu-Leu-aldehyde) belongs 75 nM; to `CC(C)C[C@@H](C=O)NC(=O)[C@H](CC(C)C)NC(=O)[C@H](CC(C)C)NC(=O)OC(C)(C)C` [MG 155] (Boc-Leu-Leu-Leu-aldehyde), 54 nM; to `CC(C)C[C@H](NC(=O)OCc1ccccc1)C(=O)N[C@@H](CC(C)C)C(=O)N[C@H](C=O)Cc1ccc(Cl)cc1` [MG 158] (Cbz-Leu-Leu-[Phe(4-Cl)]-aldehyde), 7 nM. For the molecule `CC(C)C[C@H](NC(=O)OCc1ccccc1)C(=O)N[C@@H](CC(C)C)C(=O)N[C@H](C=O)Cc1cc(Br)c(O)c(Br)c1` [MG 160] (Cbz-Leu-Leu-[Tyr(3,5-Br2)]-aldehyde), the inhibition constant Ki on 20S proteasome [3] stood at 51 nM. The same measure, in the same setting: to `CC(C)C[C@H](NC(=O)OCc1ccccc1)C(=O)N[C@@H](CC(C)C)C(=O)N[C@H](C=O)Cc1cc(I)c(O)c(I)c1` [MG 161] (Cbz-Leu-Leu-[Tyr(3,5-I2)]-aldehyde) belongs 64 nM; to `CC(C)C[C@@H](C=O)NC(=O)[C@H](CC(C)C)NC(=O)[C@H](Cc1ccc2ccccc2c1)NC(=O)OCc1ccccc1` [MG 165] (Cbz-[2Nal]-Leu-Leu-aldehyde), 0.24 nM; to `CC(C)C[C@@H](C=O)NC(=O)[C@H](Cc1cccc2ccccc12)NC(=O)[C@H](Cc1cccc2ccccc12)NC(=O)OCc1ccccc1` [MG 166] (Cbz-[1Nal]-[1Nal]-Leu-aldehyde), 0.035 nM. The same measure, in the same setting: to `CC(C)C[C@@H](C=O)NC(=O)[C@H](Cc1cccc2ccccc12)NC(=O)[C@H](Cc1ccc2ccccc2c1)NC(=O)OCc1ccccc1` [MG 167] (Cbz-[2Nal]-[1Nal]-Leu-aldehyde) belongs 0.015 nM; to `CC(C)C[C@@H](C=O)NC(=O)[C@H](C)NC(=O)[C@H](Cc1cccc2ccccc12)NC(=O)OCc1ccccc1` [MG 168] (Cbz-[1Nal]-Ala-Leu-aldehyde), 0.49 nM.

The values are drawn from patent US20040097420A1, “Proteasome regulation of NF-kB activity” (Harvard College, priority 1994, published 2004).
